From ChEMBL document CHEMBL1921742, “9,10-secosteroids, protein kinase inhibitors from the Chinese gorgonian Astrogorgia sp” (Bioorg Med Chem, 2011) come the findings set out here.

Test [1] addresses RAC-alpha serine/threonine-protein kinase (Homo sapiens, UniProt P31749). In words: Inhibition of recombinant human AKT1 using GSK3 (amino acids 14 to 27) as substrate.
In test [2] the target is ALK tyrosine kinase receptor (Homo sapiens, UniProt Q9UM73). The experiment in a line: Inhibition of recombinant human ALK.
Test [3] concerns the target T1, NUAK family SNF1-like kinase 1 (Homo sapiens, UniProt O60285).
T1 sequence (O60285 whole entry): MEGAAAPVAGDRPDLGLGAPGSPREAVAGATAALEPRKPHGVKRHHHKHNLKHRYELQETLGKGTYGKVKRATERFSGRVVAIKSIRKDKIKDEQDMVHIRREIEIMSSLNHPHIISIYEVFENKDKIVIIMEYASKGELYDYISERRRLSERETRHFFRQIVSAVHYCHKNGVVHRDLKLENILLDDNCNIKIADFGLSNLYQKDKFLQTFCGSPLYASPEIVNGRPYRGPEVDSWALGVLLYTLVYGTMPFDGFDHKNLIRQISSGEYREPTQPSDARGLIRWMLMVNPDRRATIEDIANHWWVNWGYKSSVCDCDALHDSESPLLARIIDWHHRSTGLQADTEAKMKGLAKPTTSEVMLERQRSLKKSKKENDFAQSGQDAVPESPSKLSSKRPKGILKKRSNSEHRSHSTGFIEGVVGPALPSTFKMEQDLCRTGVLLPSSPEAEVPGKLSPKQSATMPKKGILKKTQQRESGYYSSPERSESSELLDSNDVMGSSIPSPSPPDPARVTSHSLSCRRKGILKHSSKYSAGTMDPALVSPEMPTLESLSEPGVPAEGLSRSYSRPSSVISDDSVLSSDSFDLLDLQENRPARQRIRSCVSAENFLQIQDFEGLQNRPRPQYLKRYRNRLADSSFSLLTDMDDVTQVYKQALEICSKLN
In words: Inhibition of recombinant human ARK5.

The next test addresses Aurora kinase B (Homo sapiens, UniProt Q96GD4). The experiment in a line: Inhibition of recombinant human Aurora-B using tetra(LRRWLSG) as substrate.
Test [4] concerns the target T2, Tyrosine-protein kinase receptor UFO (Homo sapiens, UniProt P30530).
T2 sequence (P30530 whole entry): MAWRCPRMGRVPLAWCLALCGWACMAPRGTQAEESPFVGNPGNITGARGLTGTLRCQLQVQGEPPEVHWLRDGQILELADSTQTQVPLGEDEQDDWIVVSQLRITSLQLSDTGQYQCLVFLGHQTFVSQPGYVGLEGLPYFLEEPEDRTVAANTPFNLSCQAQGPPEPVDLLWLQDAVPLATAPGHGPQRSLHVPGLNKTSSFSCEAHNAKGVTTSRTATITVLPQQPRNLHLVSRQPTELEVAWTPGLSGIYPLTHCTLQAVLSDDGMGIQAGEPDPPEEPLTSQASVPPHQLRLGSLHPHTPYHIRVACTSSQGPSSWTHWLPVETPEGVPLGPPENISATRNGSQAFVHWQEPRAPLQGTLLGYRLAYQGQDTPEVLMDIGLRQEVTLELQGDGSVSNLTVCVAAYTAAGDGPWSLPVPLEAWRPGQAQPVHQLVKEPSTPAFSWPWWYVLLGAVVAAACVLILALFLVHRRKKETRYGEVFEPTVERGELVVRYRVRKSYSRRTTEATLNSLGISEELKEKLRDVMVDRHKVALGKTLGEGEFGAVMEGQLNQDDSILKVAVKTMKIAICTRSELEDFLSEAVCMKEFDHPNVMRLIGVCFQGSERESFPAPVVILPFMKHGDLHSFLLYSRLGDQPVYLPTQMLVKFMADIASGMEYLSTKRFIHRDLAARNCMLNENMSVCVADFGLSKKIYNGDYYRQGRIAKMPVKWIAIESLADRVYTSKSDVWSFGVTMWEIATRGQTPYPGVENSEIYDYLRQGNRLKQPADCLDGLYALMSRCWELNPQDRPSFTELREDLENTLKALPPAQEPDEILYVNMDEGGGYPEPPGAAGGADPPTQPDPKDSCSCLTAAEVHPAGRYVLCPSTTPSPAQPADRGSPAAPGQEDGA
The experiment in a line: Inhibition of recombinant human AXL.

In the next test the target is Focal adhesion kinase 1 (Homo sapiens, UniProt Q05397). In words: Inhibition of recombinant human FAK using poly(Glu,Tyr)4:1 as substrate.
Focal adhesion kinase 1, sequence (Q05397 whole entry): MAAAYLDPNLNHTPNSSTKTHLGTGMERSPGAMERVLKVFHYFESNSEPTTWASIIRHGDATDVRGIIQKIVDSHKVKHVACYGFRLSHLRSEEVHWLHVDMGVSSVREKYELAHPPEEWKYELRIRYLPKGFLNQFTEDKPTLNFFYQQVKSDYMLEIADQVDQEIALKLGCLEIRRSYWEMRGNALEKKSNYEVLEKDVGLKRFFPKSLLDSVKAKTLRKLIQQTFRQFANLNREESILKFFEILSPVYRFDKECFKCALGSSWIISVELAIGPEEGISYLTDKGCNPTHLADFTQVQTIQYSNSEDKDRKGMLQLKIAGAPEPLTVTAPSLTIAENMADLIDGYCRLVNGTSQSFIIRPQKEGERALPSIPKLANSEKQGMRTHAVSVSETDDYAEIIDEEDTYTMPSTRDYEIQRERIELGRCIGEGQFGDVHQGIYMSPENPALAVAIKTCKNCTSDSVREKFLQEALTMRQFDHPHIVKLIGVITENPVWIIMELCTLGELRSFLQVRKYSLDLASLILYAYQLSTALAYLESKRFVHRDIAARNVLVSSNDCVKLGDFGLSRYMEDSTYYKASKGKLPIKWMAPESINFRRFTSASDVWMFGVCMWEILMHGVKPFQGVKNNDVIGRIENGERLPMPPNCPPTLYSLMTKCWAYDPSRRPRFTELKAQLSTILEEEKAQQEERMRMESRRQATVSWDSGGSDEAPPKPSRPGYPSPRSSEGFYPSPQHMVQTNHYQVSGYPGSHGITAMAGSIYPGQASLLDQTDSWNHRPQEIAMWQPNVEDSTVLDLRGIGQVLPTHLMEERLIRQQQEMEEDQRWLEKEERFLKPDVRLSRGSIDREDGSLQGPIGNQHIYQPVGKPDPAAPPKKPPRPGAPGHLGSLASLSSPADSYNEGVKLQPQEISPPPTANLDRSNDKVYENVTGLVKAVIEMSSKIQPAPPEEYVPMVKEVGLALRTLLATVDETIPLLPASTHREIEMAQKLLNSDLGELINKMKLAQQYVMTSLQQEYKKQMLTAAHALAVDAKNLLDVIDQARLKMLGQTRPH
Test [5] has as its target Insulin-like growth factor 1 receptor (Homo sapiens, UniProt P08069). In words: Inhibition of recombinant human IGF1-R using poly(Glu,Tyr)4:1 as substrate.
In test [6] the target is Dual specificity mitogen-activated protein kinase kinase 1 (Homo sapiens, UniProt Q02750). In words: Inhibition of wild type human MEK1.
Dual specificity mitogen-activated protein kinase kinase 1, sequence (Q02750 whole entry): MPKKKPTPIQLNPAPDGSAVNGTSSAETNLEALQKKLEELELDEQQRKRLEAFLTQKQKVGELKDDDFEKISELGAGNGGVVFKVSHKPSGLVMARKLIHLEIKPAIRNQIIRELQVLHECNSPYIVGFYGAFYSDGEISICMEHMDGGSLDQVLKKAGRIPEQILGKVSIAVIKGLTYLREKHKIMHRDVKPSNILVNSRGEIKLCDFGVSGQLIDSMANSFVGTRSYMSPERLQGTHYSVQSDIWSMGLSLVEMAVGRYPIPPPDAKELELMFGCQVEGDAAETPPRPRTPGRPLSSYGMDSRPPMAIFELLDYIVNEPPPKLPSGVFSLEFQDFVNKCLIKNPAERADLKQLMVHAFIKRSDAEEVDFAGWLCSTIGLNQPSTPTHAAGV
For test [7], the target named is T3, Serine/threonine-protein kinase Nek2 (Homo sapiens, UniProt P51955).
T3 sequence (P51955 whole entry): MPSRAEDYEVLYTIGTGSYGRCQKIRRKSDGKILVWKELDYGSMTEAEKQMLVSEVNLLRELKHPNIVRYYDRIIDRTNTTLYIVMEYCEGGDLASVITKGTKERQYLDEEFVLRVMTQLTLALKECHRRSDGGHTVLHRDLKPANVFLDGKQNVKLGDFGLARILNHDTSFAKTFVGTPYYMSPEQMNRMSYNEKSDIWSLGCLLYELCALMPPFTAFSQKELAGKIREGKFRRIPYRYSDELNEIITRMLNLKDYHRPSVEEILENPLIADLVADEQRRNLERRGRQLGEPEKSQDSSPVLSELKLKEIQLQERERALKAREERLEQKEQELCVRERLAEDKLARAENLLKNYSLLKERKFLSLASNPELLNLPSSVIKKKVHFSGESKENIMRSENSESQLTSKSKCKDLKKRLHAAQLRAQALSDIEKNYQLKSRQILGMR
The experiment in a line: Inhibition of recombinant human NEK2.

Test [8] addresses Serine/threonine-protein kinase Nek6 (Homo sapiens, UniProt Q9HC98). The experiment in a line: Inhibition of recombinant human NEK6.
Test [9] concerns the target Serine/threonine-protein kinase pim-1 (Homo sapiens, UniProt P11309). In words: Inhibition of recombinant human PIM1.
The target in test [10] is Serine/threonine-protein kinase PLK1 (Homo sapiens, UniProt P53350). The experiment in a line: Inhibition of recombinant human PLK1 using casein as substrate.
Test [11] deals with Serine/threonine-protein kinase N1 (Homo sapiens, UniProt Q16512). In words: Inhibition of recombinant human PRK1.
Serine/threonine-protein kinase N1, sequence (Q16512 whole entry): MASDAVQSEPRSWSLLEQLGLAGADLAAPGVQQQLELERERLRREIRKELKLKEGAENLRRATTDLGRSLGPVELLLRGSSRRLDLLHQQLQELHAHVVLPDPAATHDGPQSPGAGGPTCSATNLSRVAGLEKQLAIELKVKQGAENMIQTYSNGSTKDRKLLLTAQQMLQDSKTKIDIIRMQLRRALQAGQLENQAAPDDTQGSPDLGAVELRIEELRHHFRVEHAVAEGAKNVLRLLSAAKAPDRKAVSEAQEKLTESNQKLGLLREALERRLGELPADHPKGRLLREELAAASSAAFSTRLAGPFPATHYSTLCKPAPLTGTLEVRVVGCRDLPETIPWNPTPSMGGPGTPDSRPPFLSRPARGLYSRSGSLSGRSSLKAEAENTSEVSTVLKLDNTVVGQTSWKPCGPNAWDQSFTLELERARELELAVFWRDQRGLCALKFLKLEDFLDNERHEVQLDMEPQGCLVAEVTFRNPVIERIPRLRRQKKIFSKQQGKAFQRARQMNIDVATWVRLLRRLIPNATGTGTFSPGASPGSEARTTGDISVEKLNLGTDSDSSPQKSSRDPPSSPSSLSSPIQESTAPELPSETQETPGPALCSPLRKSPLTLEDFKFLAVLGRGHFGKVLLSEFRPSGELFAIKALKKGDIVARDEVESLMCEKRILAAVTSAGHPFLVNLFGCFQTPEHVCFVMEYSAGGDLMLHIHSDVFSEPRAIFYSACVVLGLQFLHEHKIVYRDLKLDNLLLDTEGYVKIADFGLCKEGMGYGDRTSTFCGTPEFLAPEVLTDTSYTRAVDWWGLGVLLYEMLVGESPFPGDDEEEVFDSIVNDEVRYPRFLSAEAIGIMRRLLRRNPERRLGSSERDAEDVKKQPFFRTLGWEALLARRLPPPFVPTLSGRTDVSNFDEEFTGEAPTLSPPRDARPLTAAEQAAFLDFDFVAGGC
Test [12] concerns the target Proto-oncogene tyrosine-protein kinase Src (Homo sapiens, UniProt P12931). The experiment in a line: Inhibition of recombinant human SRC using poly(Glu,Tyr)4:1 as substrate.
Test [13] deals with Vascular endothelial growth factor receptor 2 (Homo sapiens, UniProt P35968). The experiment in a line: Inhibition of recombinant human VEGF-R2 using poly(Glu,Tyr)4:1 as substrate.
The target in test [14] is Hepatocyte growth factor receptor (Homo sapiens, UniProt P08581). The experiment in a line: Inhibition of wild type human MET using poly(Ala,Glu,Lys,Tyr) as substrate.

Some results are limits rather than exact numbers.

Serine/threonine-protein kinase Nek6, sequence (Q9HC98 whole entry): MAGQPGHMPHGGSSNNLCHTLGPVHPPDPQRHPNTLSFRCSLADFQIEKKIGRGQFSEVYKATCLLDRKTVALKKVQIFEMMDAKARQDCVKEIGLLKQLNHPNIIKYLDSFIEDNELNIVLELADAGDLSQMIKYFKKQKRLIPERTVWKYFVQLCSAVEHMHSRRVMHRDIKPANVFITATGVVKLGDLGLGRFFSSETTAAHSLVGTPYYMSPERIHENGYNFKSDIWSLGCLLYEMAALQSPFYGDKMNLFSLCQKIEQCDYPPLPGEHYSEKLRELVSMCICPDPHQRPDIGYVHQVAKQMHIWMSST
Aurora kinase B, sequence (Q96GD4 whole entry): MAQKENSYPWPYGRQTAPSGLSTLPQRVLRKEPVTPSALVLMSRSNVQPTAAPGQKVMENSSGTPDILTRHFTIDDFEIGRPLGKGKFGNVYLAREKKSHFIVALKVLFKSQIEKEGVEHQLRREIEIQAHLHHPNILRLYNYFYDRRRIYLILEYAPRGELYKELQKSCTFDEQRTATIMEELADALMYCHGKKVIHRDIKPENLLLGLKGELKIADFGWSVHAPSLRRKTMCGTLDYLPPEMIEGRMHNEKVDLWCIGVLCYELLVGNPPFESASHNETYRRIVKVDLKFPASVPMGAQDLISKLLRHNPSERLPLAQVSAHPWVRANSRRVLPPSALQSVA
Proto-oncogene tyrosine-protein kinase Src, sequence (P12931 2-536 limits assumed): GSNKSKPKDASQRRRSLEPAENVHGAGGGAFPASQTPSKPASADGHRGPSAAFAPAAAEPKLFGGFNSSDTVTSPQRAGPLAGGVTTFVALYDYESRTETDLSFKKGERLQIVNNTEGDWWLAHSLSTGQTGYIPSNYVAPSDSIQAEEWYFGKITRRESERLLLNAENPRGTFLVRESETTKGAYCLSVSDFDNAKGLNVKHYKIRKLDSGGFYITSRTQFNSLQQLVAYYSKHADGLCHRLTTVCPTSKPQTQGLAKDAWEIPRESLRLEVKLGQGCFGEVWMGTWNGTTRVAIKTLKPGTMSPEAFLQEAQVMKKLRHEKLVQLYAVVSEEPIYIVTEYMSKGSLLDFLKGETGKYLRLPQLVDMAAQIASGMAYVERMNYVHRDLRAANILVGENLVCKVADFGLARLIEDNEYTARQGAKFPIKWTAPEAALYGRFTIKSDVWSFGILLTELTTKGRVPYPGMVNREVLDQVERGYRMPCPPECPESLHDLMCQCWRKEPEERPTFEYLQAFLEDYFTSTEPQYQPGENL
Insulin-like growth factor 1 receptor, sequence (P08069 31-736 limits assumed): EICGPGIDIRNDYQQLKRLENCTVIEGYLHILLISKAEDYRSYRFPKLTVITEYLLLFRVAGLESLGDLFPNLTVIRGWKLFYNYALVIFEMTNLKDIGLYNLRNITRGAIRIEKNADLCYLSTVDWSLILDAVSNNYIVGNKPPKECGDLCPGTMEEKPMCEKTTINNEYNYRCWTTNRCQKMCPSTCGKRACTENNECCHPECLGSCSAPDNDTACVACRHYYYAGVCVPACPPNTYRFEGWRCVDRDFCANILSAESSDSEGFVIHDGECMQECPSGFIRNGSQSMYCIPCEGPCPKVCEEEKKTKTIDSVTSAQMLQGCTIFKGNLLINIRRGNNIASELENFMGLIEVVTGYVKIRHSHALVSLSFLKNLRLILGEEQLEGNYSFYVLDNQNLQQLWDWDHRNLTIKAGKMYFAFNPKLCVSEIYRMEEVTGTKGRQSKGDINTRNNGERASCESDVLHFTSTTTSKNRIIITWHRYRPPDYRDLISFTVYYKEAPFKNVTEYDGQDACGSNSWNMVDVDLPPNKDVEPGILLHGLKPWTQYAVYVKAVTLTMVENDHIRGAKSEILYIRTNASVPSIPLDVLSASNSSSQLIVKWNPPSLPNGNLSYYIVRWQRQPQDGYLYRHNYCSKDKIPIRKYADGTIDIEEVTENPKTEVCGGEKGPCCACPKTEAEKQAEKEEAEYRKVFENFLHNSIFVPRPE
Insulin-like growth factor 1 receptor, sequence (P08069 741-1367 limits assumed): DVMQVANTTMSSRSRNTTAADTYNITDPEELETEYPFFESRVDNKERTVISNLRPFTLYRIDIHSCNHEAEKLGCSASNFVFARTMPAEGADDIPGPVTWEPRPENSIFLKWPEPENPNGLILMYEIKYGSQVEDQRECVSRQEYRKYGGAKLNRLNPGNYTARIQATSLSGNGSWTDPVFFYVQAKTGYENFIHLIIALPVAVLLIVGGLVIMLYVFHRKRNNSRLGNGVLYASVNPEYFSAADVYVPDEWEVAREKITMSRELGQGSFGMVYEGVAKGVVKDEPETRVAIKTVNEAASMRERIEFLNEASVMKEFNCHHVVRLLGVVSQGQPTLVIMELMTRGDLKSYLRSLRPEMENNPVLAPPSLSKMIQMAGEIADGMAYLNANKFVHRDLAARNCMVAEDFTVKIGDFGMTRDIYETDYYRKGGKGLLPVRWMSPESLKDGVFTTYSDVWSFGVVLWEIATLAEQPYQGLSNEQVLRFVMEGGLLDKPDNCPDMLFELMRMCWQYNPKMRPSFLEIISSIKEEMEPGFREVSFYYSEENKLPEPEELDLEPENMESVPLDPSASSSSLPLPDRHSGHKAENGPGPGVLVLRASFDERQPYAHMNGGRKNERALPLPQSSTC

The term IC50 denotes the concentration that inhibits the measured activity by half. On to `Cc1ccc(O)cc1CC[C@@H]1[C@@H](O)CC[C@]2(C)[C@@H]([C@H](C)/C=C/CC(C)C)CC[C@@H]12` (relative stereo), for which the IC50 in test [1] was > 100 µM; in test [2], 9.33 µM; in [3], > 100 µM; at Aurora kinase B, 38.1 µM; in [4] it was 21.9 µM; on Focal adhesion kinase 1, 16.9 µM. In addition, the IC50 in [5] is 3.16 µM; in test [6] it was > 100 µM; in [7] it was > 100 µM; in test [8], > 100 µM; in test [9], > 100 µM; in [10], > 100 µM. Moreover, the IC50 in test [11] was > 100 µM; in test [12], 2.4 µM; in test [13] it was 4.95 µM.

For the molecule `C=C(CC[C@@H](C)[C@H]1CC[C@H]2[C@H](CCc3cc(O)ccc3C)C(=O)CC[C@]12C)C(C)C`, the IC50 in test [1] was > 100 µM; in test [2] it was 4.36 µM; in test [3], > 100 µM; at Aurora kinase B it was > 100 µM; in [4] it was 20.2 µM; at Focal adhesion kinase 1, 10.7 µM. Further, the IC50 in [5] is 2.3 µM; in test [6], > 100 µM; in test [14] it was 27.5 µM; in [7], > 100 µM; in [8], > 100 µM; in test [9], > 100 µM. The IC50 in [10] is 100 µM; in test [11], > 100 µM; in test [12] it was 1.48 µM; in [13] it was 4.85 µM.

`C=C(CC[C@@H](C)[C@H]1CC[C@H]2[C@H](CCc3cc(O)ccc3C)[C@H](O)CC[C@]12C)C(C)C` [CALICOFEROL C]: the IC50 (in test [1]; in test [2]; in test [3]; at Aurora kinase B; in test [4]; at Focal adhesion kinase 1) was > 100 µM throughout. For the same molecule, the IC50 in [5], in [6], in [14], in test [7], in test [8] and in test [9] was > 100 µM each time. Further, the IC50 in test [10], in test [11], in test [12] and in test [13] was > 100 µM each time.

As to `Cc1ccc(O)cc1CC[C@@H]1[C@H](O)CC[C@]2(C)[C@@H]([C@H](C)CCCC(C)C)CC[C@@H]12` [ASTROGORGIADIOL], the IC50 in [1] was > 100 µM; in [2] it was 7.55 µM; in [3] it was > 100 µM; at Aurora kinase B, 25.1 µM; in test [4] it was 16.9 µM; at Focal adhesion kinase 1 it was 13.2 µM. Besides, the IC50 in test [5] is 2.77 µM; in test [6] it was 48.9 µM; in test [14], 78 µM; in [7] it was > 100 µM; in test [8], > 100 µM; in test [9], > 100 µM. Also, the IC50 is > 100 µM in test [10], > 100 µM in [11], 1.91 µM in [12] and 4.35 µM in test [13].

Regarding `Cc1ccc(O)cc1CC[C@@H]1C(=O)CC[C@]2(C)[C@@H]([C@H](C)/C=C/CC(C)C)CC[C@@H]12` [CALICOFEROL A], the IC50 is > 100 µM in test [1]; 4.16 µM in test [2]; > 100 µM in [3]; > 100 µM at Aurora kinase B; 14.7 µM in test [4]; 9.92 µM on Focal adhesion kinase 1. Also, the IC50 is 2.42 µM in [5]; > 100 µM in [6]; 47.6 µM in test [14]; > 100 µM in test [7]; > 100 µM in test [8]; > 100 µM in test [9]. In addition, the IC50 in test [10] is > 100 µM; in test [11], > 100 µM; in test [12], 2.24 µM; in test [13] it was 4.6 µM.

In the case of `Cc1ccc(O)cc1CC[C@@H]1[C@H](O)CC[C@]2(C)[C@@H]([C@H](C)CCCC(C)C)[C@@H](O)C[C@@H]12` [CALICOFEROL B], the IC50 (in [1]; in [2]; in test [3]; on Aurora kinase B; in [4]; at Focal adhesion kinase 1) was > 100 µM each time. Also, the IC50 in [5], in test [6], in test [14], in test [7], in test [8] and in [9] was > 100 µM throughout. The IC50 in test [10], in test [11], in [12] and in test [13] was > 100 µM in each case.

Turning to `Cc1ccc(O)cc1CC[C@@H]1C(=O)CC[C@]2(C)[C@@H]([C@H](C)CCCC(C)C)[C@@H](O)C[C@@H]12` [CALICOFEROL I], the IC50 (in test [1]; in test [2]; in [3]; on Aurora kinase B; in test [4]; on Focal adhesion kinase 1) was > 100 µM each time. Also, the IC50 in test [5], in [6], in [14], in test [7], in [8] and in test [9] was > 100 µM each time. The IC50 in test [10], in test [11], in test [12] and in [13] was > 100 µM throughout.

For the molecule `Cc1ccc(O)cc1CC[C@@H]1C(=O)CC[C@]2(C)[C@@H]([C@H](C)CCCC(C)C)CC[C@@H]12` [CALICOFEROL E], the IC50 in test [1] was > 100 µM; in [2], 4.73 µM; in test [3] it was > 100 µM; on Aurora kinase B, > 100 µM; in [4], 32.6 µM; on Focal adhesion kinase 1, 9.63 µM. Further, the IC50 in test [5] was 2.46 µM; in test [6] it was > 100 µM; in [7], > 100 µM; in [8], > 100 µM; in test [9], > 100 µM; in test [10], > 100 µM. The IC50 in [11] is > 100 µM; in test [12] it was 2.17 µM; in [13], 6.01 µM.
